Positions of bridges follow the written chain, without caps; N, C: chain ends. Non-standard residues stand in square brackets, D forms with d. Residues, ends and D or L forms follow the SMILES beside them. Pra = C#CC[C@H](N)C(=O)O
Experiments:
Experiment in all cases: cell-based
hNav1.7 = hNav1.7 (Homo sapiens, UniProt Q15858); format: cell-based; settings: IonWorks Quattro, use-dependent block, hNav1.7; read-out: IWQ Use Nav1.7
hNav1.5 = hNav1.5 (Homo sapiens, UniProt Q14524); settings: IonWorks Quattro, use-dependent block, hNav1.5; read-out: IWQ Use Nav1.5
Chain of hNav1.5 (Q14524 whole entry, looked up): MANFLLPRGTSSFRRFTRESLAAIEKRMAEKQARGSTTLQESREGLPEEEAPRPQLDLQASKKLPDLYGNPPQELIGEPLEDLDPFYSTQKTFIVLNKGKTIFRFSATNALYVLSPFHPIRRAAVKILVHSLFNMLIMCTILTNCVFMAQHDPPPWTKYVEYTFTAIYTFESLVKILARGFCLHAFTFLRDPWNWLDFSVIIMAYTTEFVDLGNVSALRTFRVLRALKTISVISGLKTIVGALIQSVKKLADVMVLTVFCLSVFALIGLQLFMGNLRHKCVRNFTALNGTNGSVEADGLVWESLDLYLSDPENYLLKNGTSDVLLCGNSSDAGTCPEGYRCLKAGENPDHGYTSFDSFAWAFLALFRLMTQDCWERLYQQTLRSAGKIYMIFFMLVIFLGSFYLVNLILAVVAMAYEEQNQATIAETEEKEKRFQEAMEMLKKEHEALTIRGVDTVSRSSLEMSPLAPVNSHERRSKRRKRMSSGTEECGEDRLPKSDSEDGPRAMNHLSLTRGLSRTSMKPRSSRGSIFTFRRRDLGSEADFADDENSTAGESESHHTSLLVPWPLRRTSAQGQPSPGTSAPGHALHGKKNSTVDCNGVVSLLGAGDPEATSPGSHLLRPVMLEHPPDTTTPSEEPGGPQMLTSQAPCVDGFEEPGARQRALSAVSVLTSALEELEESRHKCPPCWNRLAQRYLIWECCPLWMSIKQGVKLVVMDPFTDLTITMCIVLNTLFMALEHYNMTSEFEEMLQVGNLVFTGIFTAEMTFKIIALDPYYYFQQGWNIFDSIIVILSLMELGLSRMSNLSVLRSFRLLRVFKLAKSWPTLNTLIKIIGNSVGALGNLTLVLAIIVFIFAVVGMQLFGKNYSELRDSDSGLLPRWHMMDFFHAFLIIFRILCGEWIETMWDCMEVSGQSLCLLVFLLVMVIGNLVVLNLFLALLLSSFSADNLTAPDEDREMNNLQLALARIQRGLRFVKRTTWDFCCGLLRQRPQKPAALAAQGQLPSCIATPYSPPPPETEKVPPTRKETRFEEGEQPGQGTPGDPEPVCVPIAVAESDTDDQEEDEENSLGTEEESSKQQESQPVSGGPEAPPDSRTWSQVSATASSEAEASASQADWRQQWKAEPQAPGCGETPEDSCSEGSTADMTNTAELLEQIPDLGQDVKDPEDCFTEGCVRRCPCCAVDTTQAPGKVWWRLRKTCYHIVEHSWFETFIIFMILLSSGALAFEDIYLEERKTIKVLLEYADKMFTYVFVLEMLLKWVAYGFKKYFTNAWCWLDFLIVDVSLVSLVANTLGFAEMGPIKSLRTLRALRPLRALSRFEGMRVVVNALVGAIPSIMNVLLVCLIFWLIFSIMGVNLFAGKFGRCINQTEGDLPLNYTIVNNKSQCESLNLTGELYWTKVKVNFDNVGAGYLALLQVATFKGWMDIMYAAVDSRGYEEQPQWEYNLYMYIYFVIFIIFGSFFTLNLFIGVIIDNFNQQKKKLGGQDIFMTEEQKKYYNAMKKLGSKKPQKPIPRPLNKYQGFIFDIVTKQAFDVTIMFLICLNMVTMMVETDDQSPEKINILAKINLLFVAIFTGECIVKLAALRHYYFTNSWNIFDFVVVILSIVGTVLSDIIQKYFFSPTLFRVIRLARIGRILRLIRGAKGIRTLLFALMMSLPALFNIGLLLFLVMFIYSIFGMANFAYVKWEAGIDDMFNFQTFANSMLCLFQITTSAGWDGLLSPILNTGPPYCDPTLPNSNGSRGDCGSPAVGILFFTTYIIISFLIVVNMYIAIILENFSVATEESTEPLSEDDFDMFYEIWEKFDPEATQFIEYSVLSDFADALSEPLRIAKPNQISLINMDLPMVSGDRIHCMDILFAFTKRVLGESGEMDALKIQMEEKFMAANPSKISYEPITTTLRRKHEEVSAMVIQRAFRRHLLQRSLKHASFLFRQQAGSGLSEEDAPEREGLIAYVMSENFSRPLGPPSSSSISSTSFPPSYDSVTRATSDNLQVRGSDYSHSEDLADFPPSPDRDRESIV

hNav1.3 = hNav1.3 (Homo sapiens, UniProt Q9NY46); settings: IonWorks Quattro, use-dependent block, hNav1.3; read-out: IWQ Use Nav1.3

Chain of hNav1.7 (Q15858 whole entry, looked up): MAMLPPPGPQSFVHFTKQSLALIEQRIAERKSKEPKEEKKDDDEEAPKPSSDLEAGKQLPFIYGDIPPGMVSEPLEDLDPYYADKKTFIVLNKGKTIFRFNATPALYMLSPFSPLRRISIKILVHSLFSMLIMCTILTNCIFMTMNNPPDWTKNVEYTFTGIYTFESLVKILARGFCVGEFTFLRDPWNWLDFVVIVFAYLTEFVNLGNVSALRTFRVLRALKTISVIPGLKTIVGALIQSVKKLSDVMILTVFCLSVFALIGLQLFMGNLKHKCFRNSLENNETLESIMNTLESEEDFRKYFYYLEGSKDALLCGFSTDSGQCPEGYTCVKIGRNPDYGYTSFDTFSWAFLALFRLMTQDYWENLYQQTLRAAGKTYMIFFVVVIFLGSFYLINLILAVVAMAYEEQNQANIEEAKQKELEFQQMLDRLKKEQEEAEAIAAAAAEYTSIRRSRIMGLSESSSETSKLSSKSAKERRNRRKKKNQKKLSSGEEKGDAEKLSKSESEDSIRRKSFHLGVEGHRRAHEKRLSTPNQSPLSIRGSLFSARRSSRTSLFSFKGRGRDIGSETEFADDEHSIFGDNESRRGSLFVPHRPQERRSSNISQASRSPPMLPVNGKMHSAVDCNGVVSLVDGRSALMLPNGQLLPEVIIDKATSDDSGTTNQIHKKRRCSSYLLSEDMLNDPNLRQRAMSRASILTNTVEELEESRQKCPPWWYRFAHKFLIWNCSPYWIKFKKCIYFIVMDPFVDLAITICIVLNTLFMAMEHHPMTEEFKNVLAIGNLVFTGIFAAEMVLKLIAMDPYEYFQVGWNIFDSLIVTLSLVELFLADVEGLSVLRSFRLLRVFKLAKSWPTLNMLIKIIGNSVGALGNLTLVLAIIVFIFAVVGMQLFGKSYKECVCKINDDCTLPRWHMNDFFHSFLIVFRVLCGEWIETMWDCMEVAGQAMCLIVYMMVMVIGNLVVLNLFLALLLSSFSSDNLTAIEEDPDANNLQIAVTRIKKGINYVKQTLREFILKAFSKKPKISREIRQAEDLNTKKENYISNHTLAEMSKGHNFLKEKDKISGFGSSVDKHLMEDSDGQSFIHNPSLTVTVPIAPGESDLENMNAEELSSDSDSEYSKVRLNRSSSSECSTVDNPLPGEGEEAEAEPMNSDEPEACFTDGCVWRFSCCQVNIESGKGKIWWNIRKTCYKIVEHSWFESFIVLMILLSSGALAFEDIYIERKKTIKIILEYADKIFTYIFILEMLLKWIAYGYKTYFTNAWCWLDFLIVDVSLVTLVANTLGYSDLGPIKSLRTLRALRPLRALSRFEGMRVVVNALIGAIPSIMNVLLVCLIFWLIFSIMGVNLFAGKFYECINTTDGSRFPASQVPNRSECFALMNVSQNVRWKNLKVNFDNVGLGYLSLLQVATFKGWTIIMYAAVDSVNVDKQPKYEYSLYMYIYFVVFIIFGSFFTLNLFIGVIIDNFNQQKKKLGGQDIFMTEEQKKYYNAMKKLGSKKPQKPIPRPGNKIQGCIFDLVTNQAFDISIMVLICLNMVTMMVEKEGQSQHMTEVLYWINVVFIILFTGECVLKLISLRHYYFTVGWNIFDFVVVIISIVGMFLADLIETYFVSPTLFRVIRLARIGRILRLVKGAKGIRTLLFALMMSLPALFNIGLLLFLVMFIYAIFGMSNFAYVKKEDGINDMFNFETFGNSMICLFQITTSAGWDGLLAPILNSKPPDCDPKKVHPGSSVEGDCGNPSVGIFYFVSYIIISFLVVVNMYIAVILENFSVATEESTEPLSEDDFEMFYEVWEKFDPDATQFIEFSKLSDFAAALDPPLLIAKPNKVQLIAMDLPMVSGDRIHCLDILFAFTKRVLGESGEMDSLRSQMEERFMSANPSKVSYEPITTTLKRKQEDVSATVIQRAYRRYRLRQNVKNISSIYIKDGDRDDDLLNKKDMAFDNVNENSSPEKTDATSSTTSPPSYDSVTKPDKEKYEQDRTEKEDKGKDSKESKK

Work on `CSCC[C@@H]1NC(=O)[C@H]([C@@H](C)O)NC(=O)CNC(=O)[C@H](CC(C)C)NC(=O)[C@@H](NC(=O)[C@@H](N)CC(=O)O)CSSC[C@@H]2NC(=O)[C@@H]3CSSC[C@@H](C(=O)N[C@@H](CCCCN)C(=O)N[C@@H](Cc4ccc(O)cc4)C(=O)N[C@H](C(=O)N[C@@H](Cc4ccccc4)C(N)=O)C(C)C)NC(=O)[C@H](Cc4c[nH]c5ccccc45)NC(=O)[C@H](CCCCN)NC(=O)[C@H](Cc4c[nH]cn4)NC(=O)[C@H]([C@@H](C)O)NC(=O)[C@H](CCCNC(=N)N)NC(=O)[C@H](CO)NC(=O)[C@H](CSSC[C@H](NC(=O)[C@H](CCCCN)NC(=O)[C@H](CCCNC(=N)N)NC1=O)C(=O)N[C@@H](CC(=O)O)C(=O)N1CCC[C@H]1C(=O)N[C@@H](CCC(=O)O)C(=O)N[C@@H](CC(N)=O)C(=O)N[C@@H](CC(=O)O)C(=O)N[C@@H](CCCCN)C(=O)N3)NC(=O)[C@H](C(C)C)NC(=O)[C@H](CC(C)C)NC(=O)[C@H](CC(N)=O)NC(=O)[C@@H]1CCCN1C(=O)[C@H](CCCNC(=N)N)NC2=O` [compound 773] (H-DCLGTMRKCDPENDKCCRPNLVCSRTHKWCKYVF-NH2; disulfide 2-17, 9-23, 16-30) yielded an IC50 (hNav1.7) of 4.5 µM, an IC50 (hNav1.5) of 28.4 µM and an IC50 (hNav1.3) of 3.4 µM.
For `CC[C@H](C)[C@@H]1NC(=O)[C@@H]2CSSC[C@@H]3NC(=O)[C@H](C(C)C)NC(=O)[C@H](CC(C)C)NC(=O)[C@H](CC(N)=O)NC(=O)[C@@H]4CCCN4C(=O)[C@H](CCCNC(=N)N)NC(=O)[C@H](CSSC[C@H](NC(=O)[C@@H](N)CC(=O)O)C(=O)N[C@@H](CC(C)C)C(=O)NCC(=O)N[C@@H](C)C(=O)N[C@@H](CCSC)C(=O)N[C@@H](CCCNC(=N)N)C(=O)N[C@@H](CCCCN)C(=O)N2)NC(=O)[C@H](CSSC[C@@H](C(=O)N[C@@H](CCCCN)C(=O)N[C@@H](Cc2ccc(O)cc2)C(=O)N[C@H](C(=O)N[C@@H](Cc2ccccc2)C(N)=O)C(C)C)NC(=O)[C@H](Cc2c[nH]c4ccccc24)NC(=O)[C@H](CCCCN)NC(=O)[C@H](Cc2c[nH]cn2)NC(=O)[C@H](CCC(=O)O)NC(=O)[C@H](CCCNC(=N)N)NC(=O)[C@H](CO)NC3=O)NC(=O)[C@H](CCCCN)NC(=O)[C@H](CC(=O)O)NC(=O)[C@H](CC(N)=O)NC(=O)[C@H](CC(=O)O)NC(=O)[C@@H]2CCCN2C1=O` [compound 787] (H-DCLGAMRKCIPDNDKCCRPNLVCSREHKWCKYVF-NH2; disulfide 2-17, 9-23, 16-30), the IC50 (hNav1.7) was greater than 5 µM, the IC50 (hNav1.5) was 27.3 µM and the IC50 (hNav1.3) was greater than 5 µM.
`CC[C@H](C)[C@@H]1NC(=O)[C@@H]2CSSC[C@@H]3NC(=O)[C@H](C(C)C)NC(=O)[C@H](CC(C)C)NC(=O)[C@H](CC(N)=O)NC(=O)[C@@H]4CCCN4C(=O)[C@H](CCCNC(=N)N)NC(=O)[C@H](CSSC[C@H](NC(=O)[C@@H](N)CC(=O)O)C(=O)N[C@@H](CC(C)C)C(=O)NCC(=O)N[C@@H](C)C(=O)N[C@@H](CCSC)C(=O)N[C@@H](CCCNC(=N)N)C(=O)N[C@@H](CCCCN)C(=O)N2)NC(=O)[C@H](CSSC[C@@H](C(=O)N[C@@H](CCCCN)C(=O)N[C@@H](Cc2ccc(O)cc2)C(=O)N[C@H](C(=O)N[C@@H](Cc2ccccc2)C(N)=O)C(C)C)NC(=O)[C@H](Cc2c[nH]c4ccccc24)NC(=O)[C@H](CCCCN)NC(=O)[C@H](CCC(=O)O)NC(=O)[C@H]([C@@H](C)O)NC(=O)[C@H](CCCNC(=N)N)NC(=O)[C@H](CO)NC3=O)NC(=O)[C@H](CCCCN)NC(=O)[C@H](CC(=O)O)NC(=O)[C@H](CC(N)=O)NC(=O)[C@H](CC(=O)O)NC(=O)[C@@H]2CCCN2C1=O` [compound 788] (H-DCLGAMRKCIPDNDKCCRPNLVCSRTEKWCKYVF-NH2; disulfide 2-17, 9-23, 16-30) was tested, and the IC50 (hNav1.7) was greater than 5 µM, the IC50 (hNav1.5) was 29.7 µM and the IC50 (hNav1.3) was greater than 5 µM.
`CC[C@H](C)[C@@H]1NC(=O)[C@@H]2CSSC[C@@H]3NC(=O)[C@H](C(C)C)NC(=O)[C@H](CC(C)C)NC(=O)[C@H](CC(N)=O)NC(=O)[C@@H]4CCCN4C(=O)[C@H](CCCNC(=N)N)NC(=O)[C@H](CSSC[C@H](NC(=O)[C@@H](N)CC(=O)O)C(=O)N[C@@H](CC(C)C)C(=O)NCC(=O)N[C@@H](C)C(=O)N[C@@H](CCSC)C(=O)N[C@@H](CCCNC(=N)N)C(=O)N[C@@H](CCCCN)C(=O)N2)NC(=O)[C@H](CSSC[C@@H](C(=O)N[C@@H](CCC(=O)O)C(=O)N[C@@H](Cc2ccc(O)cc2)C(=O)N[C@H](C(=O)N[C@@H](Cc2ccccc2)C(N)=O)C(C)C)NC(=O)[C@H](Cc2c[nH]c4ccccc24)NC(=O)[C@H](CCCCN)NC(=O)[C@H](Cc2c[nH]cn2)NC(=O)[C@H]([C@@H](C)O)NC(=O)[C@H](CCCNC(=N)N)NC(=O)[C@H](CO)NC3=O)NC(=O)[C@H](CCCCN)NC(=O)[C@H](CC(=O)O)NC(=O)[C@H](CC(N)=O)NC(=O)[C@H](CC(=O)O)NC(=O)[C@@H]2CCCN2C1=O` [compound 789] (H-DCLGAMRKCIPDNDKCCRPNLVCSRTHKWCEYVF-NH2; disulfide 2-17, 9-23, 16-30) was tested, and the IC50 (hNav1.7) was greater than 5 µM, the IC50 (hNav1.5) was 31.8 µM and the IC50 (hNav1.3) was greater than 5 µM.
Work on `CC[C@H](C)[C@@H]1NC(=O)[C@@H]2CSSC[C@@H]3NC(=O)[C@H](C(C)C)NC(=O)[C@H](CC(C)C)NC(=O)[C@H](CC(N)=O)NC(=O)[C@@H]4CCCN4C(=O)[C@H](CCCNC(=N)N)NC(=O)[C@H](CSSC[C@H](NC(=O)[C@@H](N)CC(=O)O)C(=O)N[C@@H](CC(C)C)C(=O)NCC(=O)N[C@@H](C)C(=O)N[C@@H](CCSC)C(=O)N[C@@H](CCCNC(=N)N)C(=O)N[C@@H](CCCCN)C(=O)N2)NC(=O)[C@H](CSSC[C@@H](C(=O)N[C@@H](CCCCN)C(=O)N[C@@H](Cc2ccc(O)cc2)C(=O)N[C@H](C(=O)N[C@@H](Cc2ccccc2)C(=O)N[C@@H](CCC(=O)O)C(N)=O)C(C)C)NC(=O)[C@H](Cc2c[nH]c4ccccc24)NC(=O)[C@H](CCCCN)NC(=O)[C@H](Cc2c[nH]cn2)NC(=O)[C@H]([C@@H](C)O)NC(=O)[C@H](CCCNC(=N)N)NC(=O)[C@H](CO)NC3=O)NC(=O)[C@H](CCCCN)NC(=O)[C@H](CC(=O)O)NC(=O)[C@H](CC(N)=O)NC(=O)[C@H](CC(=O)O)NC(=O)[C@@H]2CCCN2C1=O` [compound 790] (H-DCLGAMRKCIPDNDKCCRPNLVCSRTHKWCKYVFE-NH2; disulfide 2-17, 9-23, 16-30) yielded an IC50 (hNav1.7) greater than 5 µM, an IC50 (hNav1.5) of 28.5 µM and an IC50 (hNav1.3) greater than 5 µM.
`C#CC[C@@H]1NC(=O)[C@H](CC(=O)O)NC(=O)[C@@H]2CCCN2C(=O)[C@H]([C@@H](C)CC)NC(=O)[C@@H]2CSSC[C@@H]3NC(=O)[C@H](C(C)C)NC(=O)[C@H](CC(C)C)NC(=O)[C@H](CC(N)=O)NC(=O)[C@@H]4CCCN4C(=O)[C@H](CCCNC(=N)N)NC(=O)[C@H](CSSC[C@H](NC(=O)[C@@H](N)CC(=O)O)C(=O)N[C@@H](CC(C)C)C(=O)NCC(=O)N[C@@H](C)C(=O)N[C@@H](Cc4ccccc4)C(=O)N[C@@H](CCCNC(=N)N)C(=O)N[C@@H](CCCCN)C(=O)N2)NC(=O)[C@H](CSSC[C@@H](C(=O)N[C@@H](CCCCN)C(=O)N[C@@H](Cc2ccc(O)cc2)C(=O)N[C@H](C(=O)N[C@@H](Cc2ccccc2)C(N)=O)C(C)C)NC(=O)[C@H](Cc2c[nH]c4ccccc24)NC(=O)[C@H](CCCCN)NC(=O)[C@H](Cc2c[nH]cn2)NC(=O)[C@H]([C@@H](C)O)NC(=O)[C@H](CCCNC(=N)N)NC(=O)[C@H](CO)NC3=O)NC(=O)[C@H](CCCCN)NC(=O)[C@H](CC(=O)O)NC1=O` [compound 793] (H-DCLGAFRKCIPD[Pra]DKCCRPNLVCSRTHKWCKYVF-NH2; disulfide 2-17, 9-23, 16-30) showed an IC50 (hNav1.7) of 0.53 µM, an IC50 (hNav1.5) of 28.6 µM and an IC50 (hNav1.3) of 0.47 µM.

From patent US9340590B2 (priority 2011, dated 2016)
